Reference: US6573269B1, “Pyrimidine-2,4,6-trione light screening compositions” (Roche Vitamins Inc., priority 1999, dated 2003)

Legend:
Type in all cases: physicochemical
[1] = UV absorption (UV-A filter property); details: for UV extinction (ε) at absorption maximum: value in brackets after the UV maximum
From the text: The compounds of formula I have adsorption maxima in the range of 320 nm to 400 nm, the so called UV-A radiation.

[2] = Photostability: irradiation in high dilution with a Hg-lamp (150 W from Hereus); details: irradiated in high dilution with a Hg-lamp (150 W)
Experimental: A 100 ml three necked reaction flask equipped with a thermometer, a reflux condenser, and a magnetic stirrer under nitrogen atmosphere was charged with 1.1 g (5 mmol) of 4-(2-ethyl-hexyloxy)-phenylamine (Example 1b), 1.06 g (5 mmol) of 1,3-diisopropyl-pyrimidine-2,4,6-trione (Example 1c) and 11.1 g (75 mmol) of triethyl orthoformate in 10 ml of tetrahydrofuran. This mixture was refluxed for 18 hours followed by washing twice with water, dried with Na2SO4, and concentrated on a rotary evaporator. The raw product was recrystallized in ethanol to yield 0.84 g of yellowish crystals. M.p. 74-76° C., UV 355 nm (32,122).

[3] = Measurement of solubility in cosmetic solvents Cétiol LC and Crodamol DA; details: oversaturated solution, overnight at 25° C., filtered, UV measurement in CH2Cl2
Experimental: e) Measurement of solubility in Cétiol LC (cocoyl caprylate caprate) and Crodamol DA (diisopropyl adipate).
After standing overnight at 25° C., the solution was filtered through a microfilter (Millipore, pore size 0.5 , μm), followed by UV measurement in CH2Cl2. The extinctions were compared with the extinctions of the pure compound.

SMILES	UV absorption maximum [1] [nm]	UV extinction (ε) at absorption maximum [1]	photostability [2]	solubility in Crodamol DA (diisopropyl adipate) [3]	solubility in Cétiol LC (cocoyl caprylate caprate) [3]
CCCCCCCC(=O)Oc1ccc(NC=C2C(=O)N(C(C)C)C(=O)N(C(C)C)C2=O)c(O)c1 [5-{[(2-hydroxy-4-capryloxy)-phenylamine])-methylene}-1,3-diisopropyl-pyrimidine-2,4,6-trione]	354	25,813	–	–	–
CCCCC(CC)COc1ccc(NC=C2C(=O)N(C(C)C)C(=O)N(C(C)C)C2=O)cc1 (stereo not shown) [Example 1, 5-{[4-(2-Ethyl-hexyloxy)-phenylamine]-methylene}-1,3-diisopropyl-pyrimidine-2,4,6-trione]	355	32,122	photostable	26.9%	15.5%
C#CCOc1ccc(NC=C2C(=O)N(C(C)C)C(=O)N(C(C)C)C2=O)cc1 [Example 2, 5-{(4-Propargyloxy-phenylamine)-methylene}-1,3-diisopropyl-pyrimidine-2,4,6-trione]	352	31,596	photostable	–	–
C=C(COc1ccc(NC=C2C(=O)N(C(C)C)C(=O)N(C(C)C)C2=O)cc1)[Si](C)(O[Si](C)(C)C)O[Si](C)(C)C [Example 3, 5-{[4-(2-(1,3,3,3-tetramethyl-1-[(trimethylsilyl)-oxy]-disiloxanyl)-prop-2-enyloxy)-phenylamine]-methylene}-1,3-diisopropyl-pyrimidine-2,4,6-trione]	354	31,520	excellent	unlimited	unlimited
CC(C)N1C(=O)C(=CNc2ccc(O)cc2)C(=O)N(C(C)C)C1=O [Example 6, 5-{(4-Hydroxy-phenylamine)-methylene}-1,3-diisopropyl-pyrimidine-2,4,6-trione]	351	27,911	photostable	3.6%	–
CC(C)N1C(=O)C(=CNc2ccc(O)cc2O)C(=O)N(C(C)C)C1=O [Example 7, 5-{(2,4-Dihydroxy-phenylamine)-methylene}-1,3-diisopropyl-pyrimidine-2,4,6-trione]	363	23,564	photostable	4.1%	–
CCCCCCCC(=O)Oc1ccc(NC=C2C(=O)N(C(C)C)C(=O)N(C(C)C)C2=O)cc1 [Example 8, 5-{(4-Capryloxy-phenylamine)-methylene}-1,3-diisopropyl-pyrimidine-2,4,6-trione]	346	33,768	photostable	18.5%	6.6%
CCCCCCCC(=O)Oc1ccc(NC=C2C(=O)N(C(C)C)C(=O)N(C(C)C)C2=O)c(OC(=O)CCCCCCC)c1 [Example 9 diester]	351	31,349	–	–	easily mixable with Cétiiol LC in any proportion
